{"source": "paper PMC6368337", "about": "“GluClR-mediated inhibitory postsynaptic currents reveal targets for ivermectin and potential mechanisms of ivermectin resistance” (PLoS Pathogens, 2019)", "type_in_all_cases": "cell-based, H. contortus", "key": {"[1]": {"molecular_target": "αβ (1:1) GluClRs (Haemonchus contortus, UniProt O46124+P91730)", "sequence (P91730 19-432)": "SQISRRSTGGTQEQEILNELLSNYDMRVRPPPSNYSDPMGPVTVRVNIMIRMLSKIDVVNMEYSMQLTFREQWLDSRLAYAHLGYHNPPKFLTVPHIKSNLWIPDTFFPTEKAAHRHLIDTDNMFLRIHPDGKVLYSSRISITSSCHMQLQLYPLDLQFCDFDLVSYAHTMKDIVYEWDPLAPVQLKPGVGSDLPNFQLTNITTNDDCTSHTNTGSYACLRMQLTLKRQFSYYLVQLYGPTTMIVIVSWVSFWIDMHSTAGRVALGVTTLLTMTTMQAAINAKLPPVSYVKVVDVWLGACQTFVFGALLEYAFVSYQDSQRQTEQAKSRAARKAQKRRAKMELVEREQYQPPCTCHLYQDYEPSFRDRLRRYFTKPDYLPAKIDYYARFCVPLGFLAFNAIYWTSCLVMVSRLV", "sequence (O46124 entry or part of it)": "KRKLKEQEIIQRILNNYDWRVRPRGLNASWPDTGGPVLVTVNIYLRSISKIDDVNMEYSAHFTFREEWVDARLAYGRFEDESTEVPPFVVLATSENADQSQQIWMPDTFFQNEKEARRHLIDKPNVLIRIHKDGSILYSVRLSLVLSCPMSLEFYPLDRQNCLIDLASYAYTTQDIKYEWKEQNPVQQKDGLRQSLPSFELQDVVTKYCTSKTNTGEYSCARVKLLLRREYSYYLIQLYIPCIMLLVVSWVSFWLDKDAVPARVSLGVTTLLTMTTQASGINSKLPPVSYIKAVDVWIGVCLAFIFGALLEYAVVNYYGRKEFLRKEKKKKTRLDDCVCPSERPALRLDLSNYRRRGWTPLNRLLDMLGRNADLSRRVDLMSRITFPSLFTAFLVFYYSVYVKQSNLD", "assay": "Two-electrode voltage clamp in oocytes, αβ (1:1) GluClRs", "protocol": "(§1) cDNAs encoding the α (avr-14b) (pcDNA 3.1+) or β (pUNIV) GluClR subunits of H. contortus were nuclear injected into oocytes (NASCO, WI USA) or transfected into HEK293AD cells (CellBank Australia) using a calcium phosphate-DNA co-precipitate method. Synapse formation between neurons and HEK293 cells was promoted by co-transfecting neuroligin 2A or 1B and the cDNA encoding CD4 surface antigen was also added to the transfection mixture so as to identify transfected cells. The oocytes and HEK cells were used for experiments 2–3 days after the introduction of the cDNAs. All experiments were done at room temperature (22 ± 1°C).\nXenopus laevis oocytes were harvested by surgical incision. The oocytes were then defolliculated with 1.5 mg/ml collagenase for 2 hours. Free oocytes were rinsed with calcium-free OR-2 solution containing (in mM) 82.5 NaCl, 2 KCl, 1 MgCl2, 5 HEPES, pH 7.4 and mature stage V or VI oocytes were isolated for experiments. The DNAs coding for α and β subunits were nuclear injected into the oocytes using a Nanoliter 2000 microinjector (WPI Inc) at a ratio of (α:β), 1:0, 0:1, 1:1 and 1:50. The total amount of injected DNA in all combinations was 400 ng ml^−1, including the 1:50 (α:β) combination (8 ng of DNA encoding the α and 392 ng of DNA encoding β subunits). Injected oocytes were incubated in ND96 storage solution (in mM) 96 NaCl, 2 KCl, 1 MgCl2.6H2O, 1.8 CaCl2, 5 HEPES, 50 μg ml^−1 gentamicin, 2.5 sodium pyruvate, 0.5 theophylline, pH 7.4 at 16°C for 2–3 days before experiment.\nFor the two-electrode voltage clamp recordings, each oocyte was secured in a cell bath that was continually perfused with ND96 recording solution (ND96 storage solution without pyruvate, theophylline and gentamicin). […] The two microelectrodes contained 3 M KCl and had resistances of 0.2–2 MΩ. Recordings were done using Clampex 10.2 software (Molecular Devices) at a clamped voltage of −40 mV. Currents were low-pass filtered at 200 Hz, sampled at 2 kHz using a Gene Clamp 500B amplifier and digitised by a Digidata 1440A interface. The IVM (IVM B1a) concentration-response experiments were standardised by using an application protocol that consisted of applying increasing concentrations of IVM for, respectively, 3 min, 3 min, 3 min, 2 min, 1 min, 1 min and 0.5 min.\nGroup data were analysed in SigmaPlot 13.0 using one-way ANOVAs, where p < 0.05 was taken as the significance threshold and expressed as mean ± SEM. Tests for normally distributed data are built into the SigmaPlot software. Confocal images were captured and analysed with Zen 2012 SP2 (Zeiss) software. Oocyte concentration-response data were fit to a Hill equation to obtain an EC50 and Hill co-efficient for each oocyte recording. […] Single channel recordings were analysed in QuB software. […]"}, "[2]": {"molecular_target": "β GluClRs (Haemonchus contortus, UniProt P91730)", "sequence (P91730 19-432)": "as the sequence (P91730 19-432) above", "assay": "Two-electrode voltage clamp in oocytes, β GluClRs", "conditions": "EC50, oocytes, −40 mV", "protocol": "as §1\nXenopus laevis oocytes were harvested by surgical incision. The oocytes were then defolliculated with 1.5 mg/ml collagenase for 2 hours. Free oocytes were rinsed with calcium-free OR-2 solution containing (in mM) 82.5 NaCl, 2 KCl, 1 MgCl2, 5 HEPES, pH 7.4 and mature stage V or VI oocytes were isolated for experiments. The DNAs coding for α and β subunits were nuclear injected into the oocytes using a Nanoliter 2000 microinjector (WPI Inc) at a ratio of (α:β), 1:0, 0:1, 1:1 and 1:50. […]\nGroup data were analysed in SigmaPlot 13.0 using one-way ANOVAs, where p < 0.05 was taken as the significance threshold and expressed as mean ± SEM. […] Confocal images were captured and analysed with Zen 2012 SP2 (Zeiss) software. […] Single channel recordings were analysed in QuB software. […]"}, "[3]": {"system": "α GluClRs", "assay": "IPSC recording in HEK293-neuron heteroculture, α GluClRs", "conditions": "5 nM IVM", "protocol": "as §1\nPrimary neuronal cultures were prepared from cortices of E18 rat embryos, (University of Queensland Biological Services), which were triturated and plated at 100,000 cells per 18-mm poly-D-lysine-coated coverslip in DMEM with 10% fetal bovine serum. After 24 h the entire medium was replaced with Neurobasal medium that included 2% B27 and 1% GlutaMAX supplements. After one week half of this medium was replaced and the neurons were allowed to grow in vitro for 3–5 weeks before introducing the transfected HEK293 cells. Recordings of synaptic currents were done in whole-cell configuration at ‐70 mV using an Axopatch 200B amplifier (Molecular Devices), filtered at 5 kHz and digitized at 20 kHz using Clampex (pClamp 10 suite, Molecular Devices) via a Digidata 1440A digitizer."}}}
{"smiles": "CC[C@H](C)[C@H]1O[C@]2(CC[C@@H]1C)C[C@@H]1C[C@@H](C/C=C(\\C)[C@@H](O[C@H]3C[C@H](OC)[C@@H](O[C@H]4C[C@H](OC)[C@@H](O)[C@H](C)O4)[C@H](C)O3)[C@@H](C)/C=C/C=C3\\CO[C@@H]4[C@H](O)C(C)=C[C@@H](C(=O)O1)[C@]34O)O2", "note": "[IVM, Ivermectin]", "values": [{"measurement": "EC50", "setting": "[1]; EC50, oocytes, cDNA injection ratio α:β 1:1, −40 mV", "value": "86 ± 14", "unit": "nM"}, {"measurement": "Hill co-efficient", "setting": "[1]; oocytes, α:β 1:1, −40 mV", "value": "1.0 ± 0.1"}, {"measurement": "Emax", "setting": "[1]; read-out: maximal response, % of saturating glutamate response", "value": 26, "unit": "%"}, {"measurement": "EC50", "setting": "[2]", "value": "> 10000", "unit": "nM"}, {"measurement": "IPSC activation (10–90% rise) time", "setting": "[3]; 15 minutes", "value": "19 ± 1", "unit": "ms"}, {"measurement": "peak IPSC amplitude", "setting": "[3]; 15 minutes", "value": "122 ± 39", "unit": "pA"}, {"measurement": "IPSC decay time constant", "setting": "[3]; 15 minutes after start of application, −70 mV", "value": "100 ± 3", "unit": "ms"}]}
